Assay results published in US8951964B2, “Phenanthridine macrocyclic hepatitis C serine protease inhibitors” (priority 2010, dated 2015).

Tested on: genotype 1b replicon (1b-Con1, 1b-N)
Test: 1b stable replicon (luciferase reporter)
Type: cell-based, HCV
Details: Hepatitis C virus, HuH-7 cells, 5% FBS

Row | SMILES | EC50
1 | COc1ccc2c(c1)nc(O[C@@H]1C[C@H]3C(=O)N[C@]4(C(=O)NS(=O)(=O)C5CC5)C[C@H]4/C=C\CCCCC[C@H](NC(=O)c4cc(C)on4)C(=O)N3C1)c1ccc(F)cc12 | 0.1 to 0.5 nM
2 | Cc1ccc(C(=O)N[C@H]2CCCCC/C=C\[C@@H]3C[C@@]3(C(=O)NS(=O)(=O)C3(C)CC3)NC(=O)[C@@H]3C[C@@H](Oc4nc5cc(F)ccc5c5ccccc45)CN3C2=O)s1 | 0.1 to 0.5 nM
3 | O=C(N[C@H]1CCCCC/C=C\[C@@H]2C[C@@]2(C(=O)NS(=O)(=O)C2CC2)NC(=O)[C@@H]2C[C@@H](Oc3nc4ccccc4c4cc(F)ccc34)CN2C1=O)c1cncs1 | 0.1 to 0.5 nM
4 | Cc1ccc(C(=O)N[C@H]2CCCCC/C=C\[C@@H]3C[C@@]3(C(=O)NS(=O)(=O)C3(C)CC3)NC(=O)[C@@H]3C[C@@H](Oc4nc5cc(F)ccc5c5ccccc45)CN3C2=O)o1 | 0.1 to 0.5 nM
5 | CC1(S(=O)(=O)NC(=O)[C@@]23C[C@H]2/C=C\CCCCC[C@H](NC(=O)c2ccn(C(F)F)n2)C(=O)N2C[C@H](Oc4nc5cc(F)ccc5c5ccccc45)C[C@H]2C(=O)N3)CC1 | 0.1 to 0.5 nM
6 | Cc1cc(C(=O)N[C@H]2CCCCC/C=C\[C@@H]3C[C@@]3(C(=O)NS(=O)(=O)C3(C)CC3)NC(=O)[C@@H]3C[C@@H](Oc4nc5ccccc5c5cc(F)ccc45)CN3C2=O)no1 | 0.1 to 0.5 nM
7 | Cc1cc(C(=O)N[C@H]2CCCCC/C=C\[C@@H]3C[C@@]3(C(=O)NS(=O)(=O)C3CC3)NC(=O)[C@@H]3C[C@@H](Oc4nc5cc(F)c(F)cc5c5ccc(OC(F)(F)F)cc45)CN3C2=O)no1 | 0.5 to 1 nM
8 | COc1ccc2c(c1)c(O[C@@H]1C[C@H]3C(=O)N[C@]4(C(=O)NS(=O)(=O)C5CC5)C[C@H]4/C=C\CCCCC[C@H](NC(=O)c4cc(C)on4)C(=O)N3C1)nc1cc(OC(F)(F)F)ccc12 | 0.1 to 0.5 nM

Tested on: genotype 3a NS3 gene in transient replicon
Test: 3a transient replicon (luciferase reporter)
Type: cell-based, HCV
Details: Hepatitis C virus, Huh-7, read-out: 3a transient replicon (nM)

Row | SMILES | EC50
9 | COc1ccc2c(c1)nc(O[C@@H]1C[C@H]3C(=O)N[C@]4(C(=O)NS(=O)(=O)C5CC5)C[C@H]4/C=C\CCCCC[C@H](NC(=O)c4cc(C)on4)C(=O)N3C1)c1ccc(F)cc12 | > 1 nM
10 | Cc1ccc(C(=O)N[C@H]2CCCCC/C=C\[C@@H]3C[C@@]3(C(=O)NS(=O)(=O)C3(C)CC3)NC(=O)[C@@H]3C[C@@H](Oc4nc5cc(F)ccc5c5ccccc45)CN3C2=O)s1 | < 1 nM
11 | O=C(N[C@H]1CCCCC/C=C\[C@@H]2C[C@@]2(C(=O)NS(=O)(=O)C2CC2)NC(=O)[C@@H]2C[C@@H](Oc3nc4ccccc4c4cc(F)ccc34)CN2C1=O)c1cncs1 | > 1 nM
12 | Cc1ccc(C(=O)N[C@H]2CCCCC/C=C\[C@@H]3C[C@@]3(C(=O)NS(=O)(=O)C3(C)CC3)NC(=O)[C@@H]3C[C@@H](Oc4nc5cc(F)ccc5c5ccccc45)CN3C2=O)o1 | < 1 nM
13 | Cc1cc(C(=O)N[C@H]2CCCCC/C=C\[C@@H]3C[C@@]3(C(=O)NS(=O)(=O)C3(C)CC3)NC(=O)[C@@H]3C[C@@H](Oc4nc5ccccc5c5cc(F)ccc45)CN3C2=O)no1 | > 1 nM
14 | Cc1cc(C(=O)N[C@H]2CCCCC/C=C\[C@@H]3C[C@@]3(C(=O)NS(=O)(=O)C3CC3)NC(=O)[C@@H]3C[C@@H](Oc4nc5cc(F)c(F)cc5c5ccc(OC(F)(F)F)cc45)CN3C2=O)no1 | > 1 nM
15 | COc1ccc2c(c1)c(O[C@@H]1C[C@H]3C(=O)N[C@]4(C(=O)NS(=O)(=O)C5CC5)C[C@H]4/C=C\CCCCC[C@H](NC(=O)c4cc(C)on4)C(=O)N3C1)nc1cc(OC(F)(F)F)ccc12 | 0.5 to 1 nM

Tested on: genotype 1b transient replicon
Test: 1b transient replicon (luciferase reporter)
Type: cell-based, HCV
Details: Hepatitis C virus, HuH-7 cells, 5% FBS

Row | SMILES | EC50
16 | Cc1ccc(C(=O)N[C@H]2CCCCC/C=C\[C@@H]3C[C@@]3(C(=O)NS(=O)(=O)C3(C)CC3)NC(=O)[C@@H]3C[C@@H](Oc4nc5cc(F)ccc5c5ccccc45)CN3C2=O)s1 | 0.1 to 0.5 nM
17 | O=C(N[C@H]1CCCCC/C=C\[C@@H]2C[C@@]2(C(=O)NS(=O)(=O)C2CC2)NC(=O)[C@@H]2C[C@@H](Oc3nc4ccccc4c4cc(F)ccc34)CN2C1=O)c1cncs1 | 0.1 to 0.5 nM
18 | Cc1ccc(C(=O)N[C@H]2CCCCC/C=C\[C@@H]3C[C@@]3(C(=O)NS(=O)(=O)C3(C)CC3)NC(=O)[C@@H]3C[C@@H](Oc4nc5cc(F)ccc5c5ccccc45)CN3C2=O)o1 | 0.1 to 0.5 nM
19 | CC1(S(=O)(=O)NC(=O)[C@@]23C[C@H]2/C=C\CCCCC[C@H](NC(=O)c2ccn(C(F)F)n2)C(=O)N2C[C@H](Oc4nc5cc(F)ccc5c5ccccc45)C[C@H]2C(=O)N3)CC1 | 0.1 to 0.5 nM
20 | Cc1cc(C(=O)N[C@H]2CCCCC/C=C\[C@@H]3C[C@@]3(C(=O)NS(=O)(=O)C3CC3)NC(=O)[C@@H]3C[C@@H](Oc4nc5cc(F)c(F)cc5c5ccc(OC(F)(F)F)cc45)CN3C2=O)no1 | < 0.1 nM
21 | COc1ccc2c(c1)c(O[C@@H]1C[C@H]3C(=O)N[C@]4(C(=O)NS(=O)(=O)C5CC5)C[C@H]4/C=C\CCCCC[C@H](NC(=O)c4cc(C)on4)C(=O)N3C1)nc1cc(OC(F)(F)F)ccc12 | < 0.1 nM

Tested on: genotype 1a transient replicon (1a-H77)
Test: 1a transient replicon (luciferase reporter)
Type: cell-based, HCV
Details: Hepatitis C virus, HuH-7 cells, 5% FBS

Row | SMILES | EC50
22 | Cc1ccc(C(=O)N[C@H]2CCCCC/C=C\[C@@H]3C[C@@]3(C(=O)NS(=O)(=O)C3(C)CC3)NC(=O)[C@@H]3C[C@@H](Oc4nc5cc(F)ccc5c5ccccc45)CN3C2=O)s1 | 0.1 to 0.5 nM
23 | O=C(N[C@H]1CCCCC/C=C\[C@@H]2C[C@@]2(C(=O)NS(=O)(=O)C2CC2)NC(=O)[C@@H]2C[C@@H](Oc3nc4ccccc4c4cc(F)ccc34)CN2C1=O)c1cncs1 | 0.1 to 0.5 nM
24 | Cc1ccc(C(=O)N[C@H]2CCCCC/C=C\[C@@H]3C[C@@]3(C(=O)NS(=O)(=O)C3(C)CC3)NC(=O)[C@@H]3C[C@@H](Oc4nc5cc(F)ccc5c5ccccc45)CN3C2=O)o1 | 0.1 to 0.5 nM
25 | CC1(S(=O)(=O)NC(=O)[C@@]23C[C@H]2/C=C\CCCCC[C@H](NC(=O)c2ccn(C(F)F)n2)C(=O)N2C[C@H](Oc4nc5cc(F)ccc5c5ccccc45)C[C@H]2C(=O)N3)CC1 | 0.1 to 0.5 nM
26 | Cc1cc(C(=O)N[C@H]2CCCCC/C=C\[C@@H]3C[C@@]3(C(=O)NS(=O)(=O)C3CC3)NC(=O)[C@@H]3C[C@@H](Oc4nc5cc(F)c(F)cc5c5ccc(OC(F)(F)F)cc45)CN3C2=O)no1 | < 0.1 nM
27 | COc1ccc2c(c1)c(O[C@@H]1C[C@H]3C(=O)N[C@]4(C(=O)NS(=O)(=O)C5CC5)C[C@H]4/C=C\CCCCC[C@H](NC(=O)c4cc(C)on4)C(=O)N3C1)nc1cc(OC(F)(F)F)ccc12 | < 0.1 nM

Tested on: genotype 1a replicon (1a-H77)
Test: 1a stable replicon (luciferase reporter)
Type: cell-based, HCV
Details: Hepatitis C virus, Huh-7, luciferase reporter, HuH-7 cells, 5% FBS

Row | SMILES | EC50
28 | COc1ccc2c(c1)nc(O[C@@H]1C[C@H]3C(=O)N[C@]4(C(=O)NS(=O)(=O)C5CC5)C[C@H]4/C=C\CCCCC[C@H](NC(=O)c4cc(C)on4)C(=O)N3C1)c1ccc(F)cc12 | 0.1 to 0.5 nM
29 | Cc1ccc(C(=O)N[C@H]2CCCCC/C=C\[C@@H]3C[C@@]3(C(=O)NS(=O)(=O)C3(C)CC3)NC(=O)[C@@H]3C[C@@H](Oc4nc5cc(F)ccc5c5ccccc45)CN3C2=O)s1 | 0.5 to 1 nM
30 | O=C(N[C@H]1CCCCC/C=C\[C@@H]2C[C@@]2(C(=O)NS(=O)(=O)C2CC2)NC(=O)[C@@H]2C[C@@H](Oc3nc4ccccc4c4cc(F)ccc34)CN2C1=O)c1cncs1 | 0.5 to 1 nM
31 | Cc1ccc(C(=O)N[C@H]2CCCCC/C=C\[C@@H]3C[C@@]3(C(=O)NS(=O)(=O)C3(C)CC3)NC(=O)[C@@H]3C[C@@H](Oc4nc5cc(F)ccc5c5ccccc45)CN3C2=O)o1 | 0.5 to 1 nM
32 | CC1(S(=O)(=O)NC(=O)[C@@]23C[C@H]2/C=C\CCCCC[C@H](NC(=O)c2ccn(C(F)F)n2)C(=O)N2C[C@H](Oc4nc5cc(F)ccc5c5ccccc45)C[C@H]2C(=O)N3)CC1 | 0.5 to 1 nM
33 | Cc1cc(C(=O)N[C@H]2CCCCC/C=C\[C@@H]3C[C@@]3(C(=O)NS(=O)(=O)C3(C)CC3)NC(=O)[C@@H]3C[C@@H](Oc4nc5ccccc5c5cc(F)ccc45)CN3C2=O)no1 | 0.5 to 1 nM
34 | Cc1cc(C(=O)N[C@H]2CCCCC/C=C\[C@@H]3C[C@@]3(C(=O)NS(=O)(=O)C3CC3)NC(=O)[C@@H]3C[C@@H](Oc4nc5cc(F)c(F)cc5c5ccc(OC(F)(F)F)cc45)CN3C2=O)no1 | 0.5 to 1 nM
35 | COc1ccc2c(c1)c(O[C@@H]1C[C@H]3C(=O)N[C@]4(C(=O)NS(=O)(=O)C5CC5)C[C@H]4/C=C\CCCCC[C@H](NC(=O)c4cc(C)on4)C(=O)N3C1)nc1cc(OC(F)(F)F)ccc12 | 0.5 to 1 nM
